Data taken from the CheMixHub ionic liquid set.

Experiment: xn = mol fraction of the nth substance listed

C[C@H](N)C(=O)O + CCCCCCCCCCCC[N+](C)(C)Cc1ccccc1.[Cl-] + O
electrical conductivity [S/m], 101 kPa
Settings | 293.15 K | 298.15 K | 303.15 K | 308.15 K | 313.15 K
x1 = 0.000902, x2 = 0 | 0.0002 | 0.000236 | 0.000271 | 0.00031 | 0.000356
x1 = 0.001774, x2 = 0 | 0.000272 | 0.000323 | 0.000378 | 0.000442 | 0.000511

CC(C)[C@H]1CC[C@H](C)C[C@@H]1O + CCCCCCCC[N+](CCCCCCCC)(CCCCCCCC)CCCCCCCC.[Br-] + [Cl-].[Cl-].[Co+2]
296.1 K, 101.3 kPa
Settings | viscosity [mPa·s]
x2 = 0.2857, x3 = 0.1429 | 11900
x2 = 0.4, x3 = 0.2 | 22000
x2 = 0.4286, x3 = 0.1429 | 17800

CCCCCC[n+]1ccn(C)c1.c1nnn[n-]1 + CCCCCCCC[P+](CC)(CC)CC.O=S(=O)([N-]S(=O)(=O)C(F)(F)F)C(F)(F)F
100 kPa
Settings | viscosity [mPa·s]
278.15 K, x2 = 0.301 | 990
283.15 K, x2 = 0.597 | 409
283.15 K, x2 = 0.697 | 347
288.15 K, x2 = 0.4 | 414
298.15 K, x2 = 0.597 | 156
303.15 K, x2 = 0.4 | 156
303.15 K, x2 = 0.5 | 129
303.15 K, x2 = 0.899 | 90
308.15 K, x2 = 0.5 | 100
308.15 K, x2 = 0.597 | 93
308.15 K, x2 = 0.697 | 82
313.15 K, x2 = 0.697 | 66
318.15 K, x2 = 0.301 | 77
318.15 K, x2 = 0.4 | 74
318.15 K, x2 = 0.597 | 61
323.15 K, x2 = 0.1 | 86
323.15 K, x2 = 0.5 | 52

O + CCCCCCCC[n+]1ccc(C)cc1.[Br-]
100 kPa, frequency 0.003 MHz, x2 = 0
Settings | electrical conductivity [S/m]
288.15 K | 0.0001
308.15 K | 0.00022

CC1COC(=O)O1 (stereo unspecified) + CCCCCCCCn1cc[n+](C)c1.F[B-](F)(F)F
Settings | viscosity [mPa·s]
323.15 K, 99.7 kPa, x1 = 1 | 1.77

CCCCCCCCCC[n+]1ccn(C)c1.F[B-](F)(F)F + CCCCCCCCn1cc[n+](C)c1.[Br-] + O
298.15 K, 101 kPa
Settings | electrical conductivity [S/m]
x2 = 0.0007563, x1 = 0.0001261 | 0.4
x2 = 0.001655, x1 = 0.0002882 | 0.71
x2 = 0.00196, x1 = 0.0003423 | 0.81
x2 = 0.002283, x1 = 0.0003963 | 0.87
x2 = 0.002552, x1 = 0.0004503 | 0.94
x2 = 0.002857, x1 = 0.0005043 | 0.99
x2 = 0.003126, x1 = 0.0005583 | 1.04
x2 = 0.003341, x1 = 0.0005943 | 1.09
x2 = 0.003645, x1 = 0.0006483 | 1.14
x2 = 0.003877, x1 = 0.0006843 | 1.18
x2 = 0.004253, x1 = 0.0007563 | 1.23
x2 = 0.004574, x1 = 0.0008102 | 1.28
x2 = 0.004788, x1 = 0.0008462 | 1.31
x2 = 0.005092, x1 = 0.0009002 | 1.35
x2 = 0.005359, x1 = 0.0009541 | 1.4
x2 = 0.005626, x1 = 0.001008 | 1.43

CCC[N+]1(C)CCCC1.O=S(=O)([N-]S(=O)(=O)C(F)(F)F)C(F)(F)F + CCCCCC[N+]1(C)CCCC1.O=S(=O)([N-]S(=O)(=O)C(F)(F)F)C(F)(F)F
353.15 K, 101 kPa, x2 = 0
Settings | electrical conductivity [S/m] | viscosity [mPa·s]
– | 1.76 | 11.6

O + CCCCCC[n+]1ccc(C)cc1.[Br-]
100 kPa, frequency 0.003 MHz, x2 = 0
Settings | electrical conductivity [S/m]
288.15 K | 0.0001
308.15 K | 0.00022

CCCC[n+]1ccn(C)c1.F[B-](F)(F)F + CCCCCC[n+]1ccn(C)c1.F[B-](F)(F)F
Settings | viscosity [mPa·s]
305.15 K, 101 kPa, x1 = 1 | 75.1

CN(CCO)CCO + CCCCCC[n+]1ccn(C)c1.F[B-](F)(F)F
101 kPa, x1 = 1
Settings | viscosity [mPa·s]
303.15 K | 57.5
308.15 K | 44.2
313.15 K | 35

CC[P+](CC)(CC)COCCOC.c1c[n-]nn1 + CCCCCC[n+]1ccn(C)c1.O=S(=O)([N-]S(=O)(=O)C(F)(F)F)C(F)(F)F
100 kPa
Settings | viscosity [mPa·s]
278.15 K, x2 = 0.75 | 235
288.15 K, x2 = 0.25 | 136
293.15 K, x2 = 0.25 | 103
298.15 K, x2 = 0.75 | 76
303.15 K, x2 = 0.5 | 60

CN(CCO)CCO + CCCCCC[n+]1ccn(C)c1.O=S(=O)([N-]S(=O)(=O)C(F)(F)F)C(F)(F)F
101 kPa, x1 = 1
Settings | viscosity [mPa·s]
303.15 K | 59.8
313.15 K | 37.9
318.15 K | 29.8

CC[n+]1ccn(C)c1.N#C[N-]C#N + CCCCO
100 kPa
Settings | viscosity [mPa·s]
298.15 K, x1 = 0.3006 | 3.16
303.15 K, x1 = 0.9012 | 8.7
308.15 K, x1 = 0.3006 | 2.29
308.15 K, x1 = 0.4008 | 2.52
308.15 K, x1 = 0.7012 | 4.34
308.15 K, x1 = 0.8016 | 5.5
313.15 K, x1 = 0.2007 | 1.97
313.15 K, x1 = 0.3006 | 2.03
318.15 K, x1 = 0.6014 | 2.39
323.15 K, x1 = 0.2007 | 1.56
323.15 K, x1 = 0.4008 | 1.71

CCCCCCCCn1cc[n+](C)c1.O=S(=O)([N-]S(=O)(=O)C(F)(F)F)C(F)(F)F + CCCCOC(C)=O
298.15 K, 100 kPa
Settings | electrical conductivity [S/m] | viscosity [mPa·s]
x2 = 0 | 0.131 | 90.3
x2 = 0.2414 | 0.194 | –
x2 = 0.7054 | – | 6.46
x2 = 0.8427 | 0.361 | –

CC1COC(=O)O1 (stereo unspecified) + CCCC[N+]1(C)CCCC1.O=S(=O)([N-]S(=O)(=O)C(F)(F)F)C(F)(F)F
101 kPa, x1 = 1
Settings | electrical conductivity [S/m] | viscosity [mPa·s]
293.15 K | 0.002 | 2.72
303.15 K | 0.002 | 2.29
313.15 K | 0.002 | 2

CCCC[N+]1(C)CCCC1.N#C[N-]C#N + CCCC[N+]1(C)CCCC1.O=S(=O)([N-]S(=O)(=O)C(F)(F)F)C(F)(F)F
101 kPa, frequency 0 MHz, x2 = 0.5
Settings | electrical conductivity [S/m]
318 K | 0.962
323 K | 1.12

101 kPa, x2 = 0.5
Settings | viscosity [mPa·s]
318 K | 22.7
323 K | 19.7

CCC[N+]1(C)CCCC1.O=S(=O)([N-]S(=O)(=O)C(F)(F)F)C(F)(F)F + CCCC[N+]1(C)CCCC1.O=S(=O)([N-]S(=O)(=O)C(F)(F)F)C(F)(F)F
101 kPa
Settings | electrical conductivity [S/m] | viscosity [mPa·s]
293.15 K, x2 = 0.25 | 0.248 | 81.4
333.15 K, x2 = 0 | 1.18 | 18.8
333.15 K, x2 = 0.75 | 1.01 | 20.7
353.15 K, x2 = 0.5 | 1.5 | 12.2

CCCC[N+]1(C)CCCC1.N#C[N-]C#N + CCCC[N+]1(C)CCCC1.O=S(=O)([N-]S(=O)(=O)C(F)(F)F)C(F)(F)F + O=S(=O)([N-]S(=O)(=O)C(F)(F)F)C(F)(F)F.[Li+]
electrical conductivity [S/m], 101 kPa, frequency 0 MHz
Settings | 298 K | 303 K | 308 K | 313 K | 318 K | 323 K
x2 = 0.475, x1 = 0.475 | 0.481 | 0.572 | 0.67 | 0.788 | 0.912 | 1.05
x2 = 0.5, x1 = 0.5 | 0.565 | 0.642 | 0.746 | 0.857 | 0.962 | 1.12

viscosity [mPa·s], 101 kPa
Settings | 298 K | 303 K | 308 K | 313 K | 318 K | 323 K | 328 K
x2 = 0.475, x1 = 0.475 | 60.7 | 51.9 | 42.6 | 35.9 | 31.2 | 27.6 | 24.2
x2 = 0.5, x1 = 0.5 | 51.3 | – | 32 | 26.7 | 22.7 | 19.7 | 17.06

CC[n+]1ccn(C)c1.N#C[N-]C#N + CCCC[N+](C)(CCCC)CCCC.N#C[N-]C#N
101 kPa, x1 = 1
Settings | viscosity [mPa·s]
303.15 K | 12.97
323.15 K | 8.28
343.15 K | 5.49
353.15 K | 4.63

O=C1CCCCCN1 + CCCC[N+](CCCC)(CCCC)CCCC.[Cl-]
101 kPa, x1 = 0.5
Settings | electrical conductivity [S/m]
313.15 K | 0.2162
315.65 K | 0.257
328.15 K | 0.5612

O=C1CCCCCN1 + CCCC[N+](CCCC)(CCCC)CCCC.[Cl-] + O
electrical conductivity [S/m], 101 kPa
Settings | x1 = 0.0018, x2 = 0.0018 | x1 = 0.0197, x2 = 0.0197 | x1 = 0.0481, x2 = 0.0481 | x1 = 0.0862, x2 = 0.0862 | x1 = 0.146, x2 = 0.146
293.15 K | – | 0.798 | – | – | 0.593
295.65 K | – | 0.788 | – | – | 0.6211
298.15 K | – | 0.778 | 0.799 | 0.775 | 0.639
300.65 K | – | 0.769 | 0.8 | 0.7743 | 0.6505
303.15 K | – | 0.768 | 0.795 | 0.778 | 0.659
305.65 K | – | 0.767 | 0.788 | 0.775 | 0.667
308.15 K | 0.219 | 0.767 | 0.7825 | 0.7733 | 0.677
310.65 K | 0.219 | 0.763 | 0.779 | 0.768 | 0.686
313.15 K | 0.221 | 0.758 | 0.776 | 0.7623 | 0.6923
315.65 K | 0.222 | 0.753 | 0.77 | 0.757 | 0.695
318.15 K | 0.222 | 0.744 | 0.7621 | 0.7513 | 0.699
320.65 K | 0.223 | 0.735 | 0.7545 | 0.7434 | 0.699
323.15 K | 0.223 | 0.725 | 0.746 | 0.736 | 0.698
325.65 K | 0.224 | 0.716 | 0.737 | 0.727 | 0.697
328.15 K | 0.224 | 0.704 | – | 0.719 | 0.6938
330.65 K | 0.224 | 0.693 | – | 0.7105 | 0.687
333.15 K | 0.225 | 0.681 | – | 0.7023 | 0.6811

O + CCCC[n+]1ccc(C)cc1.[Br-]
100 kPa, frequency 0.003 MHz, x2 = 0
Settings | electrical conductivity [S/m]
288.15 K | 0.0001
308.15 K | 0.00022

CC1COC(=O)O1 (stereo unspecified) + CCCC[n+]1ccccc1.N#C[N-]C#N
101 kPa, x2 = 0
Settings | viscosity [mPa·s]
318.15 K | 1.724
333.15 K | 1.366

CCCC[n+]1ccn(C)c1.F[B-](F)(F)F + CCCC[n+]1ccn(C)c1.COS(=O)(=O)[O-]
101 kPa, x1 = 1
Settings | viscosity [mPa·s]
302.15 K | 88.7
305.15 K | 76.8

CN(CCO)CCO + CCCC[n+]1ccn(C)c1.F[B-](F)(F)F
101 kPa
Settings | viscosity [mPa·s]
293.15 K, x2 = 0.8999 | 105.6
303.15 K, x2 = 0.3 | 43.7
303.15 K, x2 = 0.8999 | 63.5
323.15 K, x2 = 0.1974 | 17.8
323.15 K, x2 = 0.6 | 18.8
333.15 K, x2 = 0.1974 | 12.09
333.15 K, x2 = 0.7998 | 16.8
